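GI50 = concentration required for 50% inhibition of growth. TGI is the concentration that stops growth completely.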
Tests used:
Experiment in all cases: DTP human tumour cell line panel, 384-well format
[1] = tested on: LOX IMVI melanoma
[2] = tested on: UACC-62 melanoma
[3] = tested on: U251 glioblastoma
[4] = tested on: DU-145 prostate
[5] = tested on: SK-MEL-28 melanoma
[6] = tested on: KM12 colon
[7] = tested on: A498 renal
[8] = tested on: SNB-75 CNS
[9] = tested on: HS 578T breast
[10] = tested on: IGROV1 ovarian
[11] = tested on: UO-31 renal
[12] = tested on: A549 NSCLC
[13] = tested on: SF-539 CNS
[14] = tested on: T-47D breast
[15] = tested on: SNB-19 CNS
[16] = tested on: CCRF-CEM leukemia
[17] = tested on: ACHN renal
[18] = tested on: EKVX NSCLC
[19] = tested on: SF-295 CNS
[20] = tested on: RXF 393 renal
[21] = tested on: OVCAR-4 ovarian
[22] = tested on: NCI-H226 lung
[23] = tested on: NCI/ADR-RES ovarian
[24] = tested on: NCI-H322M lung
[25] = tested on: M14 melanoma
[26] = tested on: RPMI-8226 leukemia
[27] = tested on: MOLT-4 leukemia
[28] = tested on: NCI-H460 NSCLC
[29] = tested on: MDA-MB-231 breast
[30] = tested on: MDA-MB-435 melanoma
[31] = tested on: OVCAR-8 ovarian
[32] = tested on: SK-OV-3 ovarian
[33] = tested on: HOP-62 NSCLC
[34] = tested on: BT-549 breast
[35] = tested on: 786-0 renal
[36] = tested on: SK-MEL-5 melanoma
[37] = tested on: HCT-116 colon
[38] = tested on: UACC-257 melanoma
[39] = tested on: NCI-H522 lung
[40] = tested on: SW-620 colon
[41] = tested on: SF-268 CNS
[42] = tested on: HCT-15 colon
[43] = tested on: CAKI-1 renal
[44] = tested on: OVCAR-5 ovarian
[45] = tested on: TK-10 renal
[46] = tested on: NCI-H23 lung
[47] = tested on: HCC-2998 colon
[48] = tested on: SN12C renal
[49] = tested on: HL-60(TB) leukemia
[50] = tested on: OVCAR-3 ovarian
[51] = tested on: PC-3 prostate
[52] = tested on: COLO 205 colon
[53] = tested on: MALME-3M melanoma
[54] = tested on: MDA-MB-468 breast
[55] = tested on: MCF7 breast
[56] = tested on: HOP-92 NSCLC
[57] = tested on: SR leukemia
[58] = tested on: K-562 leukemia
[59] = tested on: HT29 colon

## COc1cc2ncnc(Nc3ccc(F)c(Cl)c3)c2cc1NC(=O)/C=C/CN1CCCCC1
[1]
  GI50: 2540 nM
  TGI: 5010 nM
[2]
  GI50: 1590 nM
  TGI: 2960 nM
[3]
  GI50: 4090 nM
  TGI: 5530 nM
[4]
  GI50: 395 nM
  TGI: 2140 nM
[5]
  GI50: 1620 nM
  TGI: 2980 nM
[6]
  GI50: 2050 nM
  TGI: 4370 nM
[7]
  GI50: 471 nM
  TGI: 2190 nM
[8]
  GI50: 775 nM
  TGI: 3010 nM
[9]
  GI50: 951 nM
  TGI: 2810 nM
[10]
  GI50: < 27.3 nM
  TGI: 1560 nM
[11]
  GI50: 639 nM
  TGI: 2200 nM
[12]
  GI50: 3310 nM
  TGI: 4860 nM
[13]
  GI50: 1650 nM
  TGI: 3030 nM
[14]
  TGI: 3920 nM
[15]
  GI50: 2090 nM
  TGI: 6560 nM
[16]
  GI50: 1920 nM
  TGI: 3370 nM
[17]
  TGI: 1870 nM
[18]
  TGI: 3810 nM
[19]
  GI50: 4830 nM
  TGI: 7340 nM
[20]
  GI50: 1010 nM
  TGI: 3050 nM
[21]
  GI50: 1180 nM
  TGI: 2470 nM
[22]
  GI50: 3530 nM
  TGI: 5000 nM
[23]
  GI50: 1140 nM
  TGI: 2370 nM
[24]
  GI50: < 22.1 nM
  TGI: 150 nM
[25]
  GI50: 1740 nM
  TGI: 3140 nM
[26]
  GI50: 1510 nM
  TGI: 2850 nM
[27]
  GI50: 803 nM
  TGI: 2190 nM
[28]
  GI50: 1720 nM
  TGI: 3410 nM
[29]
  GI50: 1230 nM
  TGI: 2490 nM
[30]
  GI50: 1780 nM
  TGI: 3260 nM
[31]
  GI50: 3430 nM
  TGI: 4920 nM
[32]
  GI50: 619 nM
  TGI: 5930 nM
[33]
  GI50: 4210 nM
  TGI: 5840 nM
[34]
  GI50: 1010 nM
  TGI: 2430 nM
[35]
  GI50: 784 nM
  TGI: 2290 nM
[36]
  GI50: 1600 nM
  TGI: 3670 nM
[37]
  GI50: 1570 nM
  TGI: 2980 nM
[38]
  GI50: 1630 nM
  TGI: 3080 nM
[39]
  GI50: < 45.2 nM
  TGI: 946 nM
[40]
  GI50: 1620 nM
  TGI: 3020 nM
[41]
  GI50: 1680 nM
  TGI: 4330 nM
[42]
  GI50: 1180 nM
  TGI: 4170 nM
[43]
  GI50: 618 nM
  TGI: 2140 nM
[44]
  GI50: 1660 nM
  TGI: 5040 nM
[45]
  GI50: < 19.2 nM
  TGI: 3920 nM
[46]
  GI50: 3170 nM
  TGI: 5330 nM
[47]
  GI50: 5290 nM
[48]
  GI50: 595 nM
  TGI: 2240 nM
[49]
  GI50: 973 nM
  TGI: 2340 nM
[50]
  GI50: 586 nM
  TGI: 2040 nM
[51]
  GI50: 1670 nM
  TGI: 3180 nM
[52]
  GI50: 4040 nM
  TGI: 5480 nM
[53]
  GI50: 1520 nM
  TGI: 2860 nM
[54]
  GI50: < 10 nM
  TGI: < 19.9 nM
[55]
  GI50: 3170 nM
  TGI: 4960 nM
[56]
  GI50: 1160 nM
  TGI: 2400 nM
[57]
  GI50: 883 nM
  TGI: 2210 nM

## C=CC(=O)Nc1cc2c(Nc3ccc(F)c(Cl)c3)ncnc2cc1OCCCN1CCOCC1
[1]
  GI50: 1510 nM
  TGI: 2870 nM
[2]
  GI50: 1450 nM
  TGI: 2780 nM
[58]
  GI50: 1210 nM
  TGI: 2490 nM
[3]
  GI50: 1910 nM
  TGI: 3790 nM
[4]
  GI50: 1070 nM
  TGI: 4190 nM
[5]
  GI50: 2030 nM
  TGI: 3520 nM
[6]
  GI50: 1580 nM
  TGI: 3020 nM
[7]
  GI50: 424 nM
  TGI: 1910 nM
[8]
  GI50: 1120 nM
  TGI: 2910 nM
[9]
  GI50: 1220 nM
  TGI: 2490 nM
[10]
  GI50: < 10 nM
  TGI: 838 nM
[11]
  GI50: 1170 nM
  TGI: 4220 nM
[12]
  GI50: 1320 nM
  TGI: 2710 nM
[13]
  GI50: 1370 nM
  TGI: 2680 nM
[14]
  GI50: 54.7 nM
  TGI: 1440 nM
[15]
  GI50: 1850 nM
  TGI: 4140 nM
[16]
  GI50: 1200 nM
  TGI: 2460 nM
[17]
  GI50: 13.1 nM
  TGI: 1660 nM
[18]
  GI50: 50.7 nM
  TGI: 1930 nM
[19]
  GI50: 4620 nM
  TGI: 15800 nM
[20]
  GI50: 620 nM
  TGI: 2000 nM
[21]
  GI50: 2020 nM
  TGI: 6000 nM
[22]
  GI50: 1960 nM
  TGI: 4700 nM
[23]
  GI50: 1450 nM
  TGI: 2870 nM
[24]
  GI50: < 10 nM
  TGI: 1290 nM
[25]
  GI50: 1580 nM
  TGI: 2950 nM
[26]
  GI50: 1220 nM
  TGI: 2490 nM
[27]
  GI50: 933 nM
  TGI: 2150 nM
[28]
  GI50: 1510 nM
  TGI: 2900 nM
[29]
  GI50: 1530 nM
  TGI: 3770 nM
[30]
  GI50: 2420 nM
  TGI: 5090 nM
[59]
  GI50: 1550 nM
  TGI: 3000 nM
[31]
  GI50: 1440 nM
  TGI: 2790 nM
[32]
  GI50: 1060 nM
  TGI: 2670 nM
[33]
  GI50: 1640 nM
  TGI: 3700 nM
[34]
  GI50: 1060 nM
  TGI: 2270 nM
[35]
  GI50: 1160 nM
  TGI: 2490 nM
[36]
  GI50: 1410 nM
  TGI: 2750 nM
[37]
  GI50: 1760 nM
  TGI: 3260 nM
[38]
  GI50: 1310 nM
  TGI: 2620 nM
[39]
  GI50: 65.3 nM
  TGI: 454 nM
[40]
  GI50: 1690 nM
  TGI: 3080 nM
[41]
  GI50: 209 nM
  TGI: 1650 nM
[42]
  GI50: 1190 nM
  TGI: 2470 nM
[43]
  GI50: 462 nM
  TGI: 1990 nM
[44]
  GI50: 1740 nM
  TGI: 13600 nM
[45]
  GI50: 36.8 nM
  TGI: 2090 nM
[46]
  GI50: 1470 nM
  TGI: 2800 nM
[47]
  GI50: 1320 nM
  TGI: 2630 nM
[48]
  GI50: 267 nM
  TGI: 1910 nM
[49]
  GI50: 1220 nM
  TGI: 2500 nM
[50]
  GI50: 1030 nM
  TGI: 2220 nM
[51]
  GI50: 1690 nM
  TGI: 3110 nM
[52]
  GI50: 1600 nM
  TGI: 3110 nM
[53]
  GI50: 1720 nM
  TGI: 3130 nM
[54]
  GI50: < 10 nM
[55]
  GI50: 1140 nM
  TGI: 2520 nM
[56]
  GI50: 1400 nM
  TGI: 2930 nM
